{
  "source": "patent US10561145B2",
  "about": "“Fused bicyclic heterocycle derivatives as pesticides” (Bayer CropScience Aktiengesellschaft, priority 2016, dated 2020)",
  "key": {"[1]": {"assay": "log P by HPLC on a reversed-phase column (C18), EEC Directive 79/831 Annex V.A8", "format": "physicochemical", "details": "55° C.", "protocol": "The log P values are measured according to EEC Directive 79/831 Annex V.A8 by HPLC (high-performance liquid chromatography) on a reversed-phase column (C18). Temperature: 55° C. The LC-MS determination in the acidic range is carried out at pH 2.7 using the mobile phases 0.1% aqueous formic acid and acetonitrile (contains 0.1% formic acid); linear gradient from 10% acetonitrile to 95% acetonitrile. Called log P (HCOOH) or log P[a] in the table. The LC-MS determination in the neutral range is carried out at pH 7.8 using the mobile phases 0.001 molar aqueous ammonium bicarbonate solution and acetonitrile; linear gradient from 10% acetonitrile to 95% acetonitrile. Called log P (neutral) or log P[n] in the table. Calibration is carried out using unbranched alkan-2-ones (having 3 to 16 carbon atoms) with known log P values (log P values determined on the basis of the retention times by linear interpolation between two successive alkanones)."}, "Myzus persicae [2]": {"tested_on": "Myzus persicae", "assay": "Myzus persicae - oral test", "format": "in vivo", "details": "application rate 4 ppm, after 5 days, green peach aphids, mixed population, oral uptake", "protocol": "Myzus persicae—Oral Test Solvent: 100 parts by weight of acetone To produce a suitable preparation of active compound, 1 part by weight of active compound is dissolved using the specified parts by weight of solvent and made up with water until the desired concentration is attained. 50 μl of the active compound preparation are transferred into microtitre plates and made up to a final volume of 200 μl with 150 μl of IPL41 insect medium (33%+15% sugar). Subsequently, the plates are sealed with parafilm, which a mixed population of green peach aphids (Myzus persicae) within a second microtitre plate is able to puncture and imbibe the solution through it. After 5 days, the efficacy in % is determined. 100% means that all the aphids have been killed; 0% means that no aphids have been killed."}, "Myzus persicae [3]": {"tested_on": "Myzus persicae", "assay": "Myzus persicae - spray test", "format": "in vivo", "details": "application rate 20 g/ha, after 5 days, sprayed Chinese cabbage leaf discs, all stages of green peach aphid", "protocol": "Myzus persicae—Spray Test Solvent: 78 parts by weight of acetone • • 1.5 parts by weight of dimethylformamide Emulsifier: alkylaryl polyglycol ether To produce a suitable active compound preparation, 1 part by weight of active compound is dissolved with the specified parts by weight of solvent and made up with water containing an emulsifier concentration of 1000 ppm until the desired concentration is attained. To produce further test concentrations, the formulation is diluted with emulsifier-containing water. Discs of Chinese cabbage leaves (Brassica pekinensis) infested by all stages of the green peach aphid (Myzus persicae) are sprayed with an active compound formulation of the desired concentration. After 5 days, the efficacy in % is determined. 100% means that all the aphids have been killed; 0% means that no aphids have been killed."}, "Phaedon cochleariae": {"tested_on": "Phaedon cochleariae", "assay": "Phaedon cochleariae - spray test", "format": "in vivo", "details": "application rate 100 g/ha, after 7 days, sprayed Chinese cabbage leaf discs, mustard beetle larvae", "protocol": "Phaedon cochleariae—Spray Test\nSolvent: 78.0 parts by weight of acetone • • 1.5 parts by weight of dimethylformamide\nEmulsifier: alkylaryl polyglycol ether\nTo produce a suitable active compound preparation, 1 part by weight of active compound is dissolved with the specified parts by weight of solvent and made up with water containing an emulsifier concentration of 1000 ppm until the desired concentration is attained. To produce further test concentrations, the formulation is diluted with emulsifier-containing water.\nDiscs of Chinese cabbage leaves (Brassica pekinensis) are sprayed with an active compound formulation of the desired concentration and, after drying, populated with larvae of the mustard beetle (Phaedon cochleariae).\nAfter 7 days, the efficacy in % is determined. 100% means that all the beetle larvae have been killed; 0% means that no beetle larvae have been killed."}, "[4]": {"details": "acidic range, pH 2.7, 0.1% aqueous formic acid/acetonitrile gradient, read-out: log P[a] (log P (HCOOH))"}, "[5]": {"details": "neutral range, pH 7.8, 0.001 molar aqueous ammonium bicarbonate/acetonitrile gradient, read-out: log P[n] (log P (neutral))"}},
  "note": "Read-outs that look alike come from different tables or passages of the source.",
  "data": [
    {"smiles": "CCS(=O)(=O)c1c(-c2nc3cc(C(F)(F)F)cnc3n2C)ncc2ncsc12", "note": "[Example I-1, 7-(Ethylsulfonyl)-6-[3-methyl-6-(trifluoromethyl)-3H-imidazo[4,5-b]pyridin-2-yl][1,3]thiazolo[4,5-c]pyridine]", "values": [
      {"measurement": "chromatographic logP", "setting": "[1]; [4]", "value": 2.6},
      {"measurement": "chromatographic logP", "setting": "[1]; [5]", "value": 2.53},
      {"measurement": "efficacy in % (aphids killed)", "setting": "Myzus persicae [2]", "value": 100, "unit": "%"},
      {"measurement": "efficacy in % (aphids killed)", "setting": "Myzus persicae [3]", "value": 90, "unit": "%"},
      {"measurement": "efficacy in % (beetle larvae killed)", "setting": "Phaedon cochleariae", "value": 83, "unit": "%"}
    ]},
    {"smiles": "CC[S+]([O-])c1c(-c2nc3cc(C(F)(F)F)cnc3n2C)ncc2ncsc12", "note": "(centres unmarked) [Example I-2, 7-(Ethylsulfinyl)-6-[3-methyl-6-(trifluoromethyl)-3H-imidazo[4,5-b]pyridin-2-yl][1,3]thiazolo[4,5-c]pyridine]", "values": [
      {"measurement": "chromatographic logP", "setting": "[1]; [4]", "value": 3.09},
      {"measurement": "chromatographic logP", "setting": "[1]; [5]", "value": 2.98}
    ]},
    {"smiles": "CCSc1c(-c2nc3cc(C(F)(F)F)cnc3n2C)ncc2ncsc12", "note": "[Example I-3, 7-(Ethylsulfanyl)-6-[3-methyl-6-(trifluoromethyl)-3H-imidazo[4,5-b]pyridin-2-yl][1,3]thiazolo[4,5-c]pyridine]", "values": [
      {"measurement": "chromatographic logP", "setting": "[1]; [4]", "value": 2.96},
      {"measurement": "chromatographic logP", "setting": "[1]; [5]", "value": 2.94}
    ]},
    {"smiles": "CCS(=O)(=O)c1c(-c2nc3cc(C(F)(F)F)cnc3n2C)ncc2ccsc12", "note": "[Example I-4]", "values": [
      {"measurement": "chromatographic logP", "setting": "[1]; [4]", "value": 2.88},
      {"measurement": "chromatographic logP", "setting": "[1]; [5]", "value": 2.82},
      {"measurement": "efficacy in % (aphids killed)", "setting": "Myzus persicae [2]", "value": 100, "unit": "%"},
      {"measurement": "efficacy in % (aphids killed)", "setting": "Myzus persicae [3]", "value": 90, "unit": "%"},
      {"measurement": "efficacy in % (beetle larvae killed)", "setting": "Phaedon cochleariae", "value": 100, "unit": "%"}
    ]},
    {"smiles": "CCS(=O)(=O)c1c(-c2nc3cc(C(F)(F)F)ncc3n2C)ncc2ccsc12", "note": "[Example I-5]", "values": [
      {"measurement": "chromatographic logP", "setting": "[1]; [4]", "value": 2.53},
      {"measurement": "chromatographic logP", "setting": "[1]; [5]", "value": 2.4},
      {"measurement": "efficacy in % (aphids killed)", "setting": "Myzus persicae [3]", "value": 90, "unit": "%"}
    ]},
    {"smiles": "CCSc1c(-c2nc3cc(C(F)(F)F)ncc3n2C)ncc2ccsc12", "note": "[Example I-6]", "values": [
      {"measurement": "chromatographic logP", "setting": "[1]; [4]", "value": 2.95},
      {"measurement": "chromatographic logP", "setting": "[1]; [5]", "value": 2.85}
    ]},
    {"smiles": "CCS(=O)(=O)c1c(-c2nc3cc(C(F)(F)F)cnc3n2C)ncc2sccc12", "note": "[Example I-7]", "values": [
      {"measurement": "chromatographic logP", "setting": "[1]; [4]", "value": 2.56},
      {"measurement": "chromatographic logP", "setting": "[1]; [5]", "value": 2.72},
      {"measurement": "efficacy in % (aphids killed)", "setting": "Myzus persicae [2]", "value": 100, "unit": "%"},
      {"measurement": "efficacy in % (aphids killed)", "setting": "Myzus persicae [3]", "value": 100, "unit": "%"}
    ]},
    {"smiles": "CCS(=O)(=O)c1c(-c2nc3cc(C(F)(F)F)ncc3n2C)ncc2sccc12", "note": "[Example I-8]", "values": [
      {"measurement": "chromatographic logP", "setting": "[1]; [4]", "value": 2.3},
      {"measurement": "chromatographic logP", "setting": "[1]; [5]", "value": 2.28},
      {"measurement": "efficacy in % (aphids killed)", "setting": "Myzus persicae [2]", "value": 100, "unit": "%"},
      {"measurement": "efficacy in % (aphids killed)", "setting": "Myzus persicae [3]", "value": 100, "unit": "%"}
    ]},
    {"smiles": "CCOC(=O)c1ncc2ncsc2c1SCC", "note": "[XL-1, Ethyl 7-(ethylsulfanyl)[1,3]thiazolo[4,5-c]pyridine-6-carboxylate]", "values": [
      {"measurement": "chromatographic logP", "setting": "[1]; [4]", "value": 2.23},
      {"measurement": "chromatographic logP", "setting": "[1]; [5]", "value": 2.17}
    ]},
    {"smiles": "CCSc1c(C(=O)O)ncc2ncsc12", "note": "[XLI-1, 7-(Ethylsulfanyl)[1,3]thiazolo[4,5-c]pyridine-6-carboxylic acid]", "values": [
      {"measurement": "chromatographic logP", "setting": "[1]; [4]", "value": 0.88}
    ]},
    {"smiles": "CCOC(=O)c1ncc2ncsc2c1OS(=O)(=O)C(F)(F)F", "note": "[XXXIV-1, Ethyl 7-{[(trifluoromethyl)sulfonyl]oxy}[1,3]thiazolo[4,5-c]pyridine-6-carboxylate]", "values": [
      {"measurement": "chromatographic logP", "setting": "[1]; [4]", "value": 2.58},
      {"measurement": "chromatographic logP", "setting": "[1]; [5]", "value": 2.57}
    ]}
  ]
}
